This passage reports IC50 results from ChEMBL document CHEMBL6121012, “Chemical Basis of the Traditional Ayurvedic Detoxification Process of the Toxic Medicinal Plant Plumbago zeylanica” (J Nat Prod, 2025).

A short description of the data set: Cytotoxicity against human HepG2 cells assessed as reduction in cell viability incubated for 24 hrs by MTT assay. The class given is toxicity, cell-based.

For the molecule `C[C@@H]1CC(=O)c2c(O)cccc2[C@@H]1O`, the IC50 at 24 h stood at 3 mM.
Take `C[C@@H]1CC(=O)c2c(O)cccc2[C@H]1O`: the IC50 at 24 h is 1 mM.
Regarding `CC1=CC(=O)c2c(O)cccc2C1=O` [PLUMBAGIN], the IC50 at 24 h was 0.014 mM.
